Measurements published in paper PMC5682218 (European journal of medicinal chemistry, 2017).
Counter-ions that a name gives are not always drawn. Like-named read-outs stand apart in the source and are kept apart here.

Tests used:
[1] = biological target: HIV RT polymerase (pol) (Human immunodeficiency virus type 1 group M subtype B, UniProt P03366); assay: RT polymerase assay; assay type: biochemical, HIV-1
[2] = system: P4R5 cells; assay: Cytotoxicity in cell-based MAGI assay; settings: human
[3] = biological target: HIV RT-associated RNase H (Human immunodeficiency virus type 1 group M subtype B, UniProt P03366); assay: RNH assay: HIV RT-associated RNase H inhibition, HTS-1 RNA/DNA substrate; assay type: biochemical, HIV-1
[4] = biological target: HIV integrase (Human immunodeficiency virus type 1 group M subtype B, UniProt P03366); assay: HIV IN assay; assay type: biochemical
[5] = system: HIV-1; assay: MAGI antiviral assay in P4R5 indicator cells; assay type: cell-based; settings: Human immunodeficiency virus 1, read-out: MAGI Antiviral EC50
[6] = Cytotoxicity in cell-based MAGI assay; settings: human, P4R5 indicator cells (MAGI assay)
[7] = read-out: RT IC50 Pol, concentration inhibiting the target enzyme by 50%
[8] = concentration inhibiting the target enzyme by 50%

## 3-Hydroxy-1,5,6,7-tetrahydro-2H-cyclopenta[4, 5]thieno[2,3-d]pyrimidine-2,4(3H)-dione [Compound 11i]
[1]; [7]
  IC50: > 10 µM
[2]
  CC50: > 100 µM

## CCN1CCc2c(sc3[nH]c(=O)n(O)c(=O)c23)C1 [Compound 11k, 7-Ethyl-3-hydroxy-5,6,7,8-tetrahydropyrido[4′,3′:4,5]thieno[2,3-d]pyrimidine-2,4(1H,3H)-dione hydrochloride]
[3]
  IC50: 0.2 ± 0.03 µM
[1]
  IC50: > 10 µM
[4]
  IC50: > 100 µM
[5]
  EC50: > 20 µM
[6]
  CC50 at 72 h: > 100 µM

## O=c1[nH]c2scc(-c3ccccc3)c2c(=O)n1O [Compound 11c, 3-Hydroxy-5-phenylthieno[2,3-d]pyrimidine-2,4(1H,3H)-dione]
[3]
  IC50: 0.1 ± 0.03 µM
[1]
  IC50: > 10 µM

## O=c1[nH]c2cc(-c3ccccc3)ccc2c(=O)n1O [Compound 9a, 3-Hydroxy-7-phenylquinazoline-2,4(1H,3H)-dione]
[3]; vs. compound 14
  fold increase in RNase H inhibition: 6.5 fold
[1]
  IC50: > 10 µM
[4]; vs. compound 14
  fold decrease in INST inhibition: 5.5 fold

## O=c1[nH]c2cc(-c3ccccc3)sc2c(=O)n1O [Compound 10a, 3-Hydroxy-6-phenylthieno [3,2-d]pyrimidine-2,4(1H,3H)-dione]
[3]
  IC50: 0.1 ± 0.06 µM
[1]
  IC50: > 10 µM
[1]; [8]
  RT IC50 Pol: no RT pol inhibition

## Cc1c(C(=O)O)sc2[nH]c(=O)n(O)c(=O)c12 [Compound 11h, 3-Hydroxy-5-methyl-2,4-dioxo-1,2,3,4-tetrahydrothieno[2,3-d]pyrimidine-6-carboxylic acid]
[3]
  IC50: 0.1 ± 0.02 µM
[1]
  IC50: > 10 µM

## O=c1[nH]c2cc(-c3ccc(Cl)cc3)ccc2c(=O)n1O [Compound 9b, 7-(4-Chlorophenyl)-3-hydroxyquinazoline-2,4(1H,3H)-dione]
[1]
  IC50: > 10 µM

## O=c1[nH]c2sccc2c(=O)n1O [Compound 11e, 3-Hydroxythieno[2,3-d]pyrimidine-2,4(1H,3H)-dione]
[1]
  IC50: > 10 µM

## Cc1sc2[nH]c(=O)n(O)c(=O)c2c1C [Compound 11g, 3-Hydroxy-5,6-dimethylthieno[2,3-d]pyrimidine-2,4(1H,3H)-dione]
[3]
  IC50: 0.1 ± 0.03 µM
[1]
  IC50: > 10 µM

## O=c1[nH]c2cc(-c3ccc(F)cc3)sc2c(=O)n1O [Compound 10b, 6-(4-Fluorophenyl)-3-hydroxythieno[3,2-d]pyrimidine-2,4(1H,3H)-dione]
[1]
  IC50: > 10 µM

## O=c1[nH]c2sc(Cc3ccccc3)cc2c(=O)n1O [Compound 11b, 6-Benzyl-3-hydroxythieno[2,3-d]pyrimidine-2,4(1H,3H)-dione]
[1]
  IC50: > 10 µM

## O=c1[nH]c2scc(-c3ccc(Cl)cc3)c2c(=O)n1O [Compound 11d, 5-(4-Chlorophenyl)-3-hydroxythieno[2,3-d]pyrimidine-2,4(1H,3H)-dione]
[1]
  IC50: > 10 µM
[1]; [8]
  RT IC50 Pol: did not inhibit RT polymerase

## Cc1csc2[nH]c(=O)n(O)c(=O)c12 [Compound 11f, 3-Hydroxy-5-methylthieno[2,3-d]pyrimidine-2,4(1H,3H)-dione]
[3]
  IC50: 0.1 ± 0.02 µM
[1]
  IC50: > 10 µM

## O=c1[nH]c2sc3c(c2c(=O)n1O)CCNC3 [Compound 11l, 3-Hydroxy-5,6,7,8-tetrahydropyrido[4′,3′:4,5]thieno[2,3-d]pyrimidine-2,4(1H,3H)-dione hydrobromide]
[3]
  IC50: 0.3 ± 0.03 µM
[1]
  IC50: > 10 µM
[4]
  IC50: 17 ± 3 µM
[5]
  EC50: > 20 µM
[6]
  CC50 at 72 h: > 100 µM

## O=C1Cc2cc(-c3ccccc3)ccc2C(=O)N1O [Compound 14, 2-Hydroxy-6-phenylisoquinoline-1,3(2H,4H)-dione]
[1]
  IC50: > 10 µM
[1]; [8]
  RT IC50 Pol: without inhibiting RT pol

## 3-Hydroxy-5,6,7,8-tetrahydrobenzo[4, 5]thieno[2,3-d]pyrimidine-2,4(1H,3H)-dione [Compound 11j]
[1]; [7]
  IC50: > 10 µM
[2]
  CC50: > 100 µM

## O=c1[nH]c2sc(-c3ccccc3)cc2c(=O)n1O [Compound 11a, 3-Hydroxy-6-phenylthieno[2,3-d]pyrimidine-2,4(1H,3H)-dione]
[1]
  IC50: > 10 µM

## O=c1[nH]c2sc3c(c2c(=O)n1O)CCN(Cc1ccccc1)C3 [Compound 11m, 7-Benzyl-3-hydroxy-5,6,7,8-tetrahydropyrido[4′,3′:4,5]thieno[2,3-d]pyrimidine-2,4(1H,3H)-dione hydrochloride]
[3]
  IC50: 0.1 ± 0.04 µM
[1]
  IC50: > 10 µM
[4]
  IC50: 8.3 ± 0.8 µM
[5]
  EC50: > 20 µM
[6]
  CC50 at 72 h: > 100 µM

## O=c1[nH]c2cc(-c3ccc(Cl)cc3)sc2c(=O)n1O [Compound 10c, 6-(4-Chlorophenyl)-3-hydroxythieno[3,2-d]pyrimidine-2,4(1H,3H)-dione]
[1]
  IC50: > 10 µM
